Results published in US8168747B2, “On-growth inhibiting compounds” (Viogard AB, priority 2002, dated 2012).
Entries after “also recorded” stand apart in the source; their conditions may differ.

What was measured:
B. improvisus [1] = experiment: Reversibility test: cyprids moved to fresh seawater; type: in vivo, Balanus improvisus; conditions: cyprids from 2.5 μM moved to fresh sea water; five days
Method: (§1) The brood stock of adult barnacles (B. improvisus, Darwin 1854) were allowed to settle on plexiglass panels in the sea on a raft outside Tjärnö Marine Biological Laboratory (58° 53′ N, 11° 8′ E). Cleaned from epiphytes they were brought to the laboratory and immediately placed in trays with running seawater (salinity […]). When regularly fed, with nauplii of Artemia salina, B. improvisus will spawn throughout the year. For larval rearing we used the method according to Berntsson et al., described in “Reduction of barnacle recruitment on micro-textured surfaces: Analysis of effective topographic characteristics and evaluation of skin friction”, Biofouling 16, 245-261. The experiment for the evaluation of the effect on settlement and mortality was performed using polystyrene Petri dishes (Ø48 mm) to which 10 ml of the peptide dissolved to different concentrations in filtered seawater (0.2 μm, 32±1%) was added. Competent cyprids (20±2 ind.) were added to each dish in four replicates and dishes with filtered seawater served as controls. Dishes were maintained for 3-4 days in room temperature after which they were examined under a stereo microscope for attached and metamorphosed individuals and also, for dead cyprids.
Half of the number of cyprids in each petri dish incubated at the highest tested concentration, 2.5 μM, were moved to a petri dish containing 10 ml of fresh seawater. […]

B. improvisus [2] = experiment: Larval bioassay: settlement and mortality of barnacle cyprids; type: in vivo, Balanus improvisus
Method: as §1
Results are reported as means±standard error and using 1-factor analysis of variance (ANOVA).

Helicoverpa punctigera = conditions: feeding trial, cited from earlier work

| Substance | mortality in reversibility test (B. improvisus [1]) | settlement (B. improvisus [2]; 0.0025 μM (lowest tested concentration), 3-4 days, control 67±3%) [%] | settlement (B. improvisus [2]; 0.025 μM, 3-4 days) [%] | inhibition of settlement (B. improvisus [2]; 0.25 μM, 3-4 days) | mortality compared to the control (B. improvisus [2]; all tested concentrations up to 2.5 μM, control saltwater only) | mortality of insect larvae (Helicoverpa punctigera; over time) | growth and development of the insect larvae (Helicoverpa punctigera) |
| --- | --- | --- | --- | --- | --- | --- | --- |
| cyclo(VWIPCISSAIGCSCKSKVCYRNGIPCGESC) (head-to-tail cyclic) [cycloviolacin O2] | No increase in mortality was observed | 68±3 | 21±0.5 | complete inhibition of settlement; also recorded: complete inhibition of fouling | No one of the tested concentrations showed an increase in mortality; also recorded: No increase in mortality could be detected |  |  |
| kalata B1: cyclotide with potent insecticidal activities reported by Jennings and coworkers (cyclo(GLPVCGETCVGGTCNTPGCTCSWPVCTRN); not fully specified (bridges); cysteine pairing not given here; UniProt P56254 89-117, looked up) |  |  |  |  |  | increase in mortality over time | greatly affected |
